Source: PubChem BioAssay AID1963848 (Molecular Pharmacology Branch, DTP, NCI, 2024)

Test system: 379773-124-R-J2-PDC spheroid viability
Assay: Anticancer human tumor 379773-124-R-J2-PDC patient-derived endometrial carcinoma cell line growth inhibition [POLQ]
Conditions: spheroids with HUVEC and MSC; for IC50: curve of first compound; for viability, T/C: stronger effect = lower value
Procedure, shortened: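 Three-cell-type spheroids modelling solid tumor plus stroma served as the readout system; POL inhibitors were tested individually and in combination, concentration ranges set by clinical Cmax where known.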

[1] = second compound 0.0316 µM, first compound 0.0316 µM
[2] = second compound 0.0316 µM, first compound 0.1 µM
[3] = second compound 0.0316 µM, first compound 0.316 µM
[4] = second compound 0.0316 µM, first compound 1 µM
[5] = second compound 0.0316 µM, first compound 3.16 µM
[6] = second compound 0.0316 µM, first compound 10 µM
[7] = second compound 0.1 µM, first compound 0.0316 µM
[8] = second compound 0.1 µM, first compound 0.1 µM
[9] = second compound 0.1 µM, first compound 0.316 µM
[10] = second compound 0.1 µM, first compound 1 µM
[11] = second compound 0.1 µM, first compound 3.16 µM
[12] = second compound 0.1 µM, first compound 10 µM
[13] = second compound 0.316 µM, first compound 0.0316 µM
[14] = second compound 0.316 µM, first compound 0.1 µM
[15] = second compound 0.316 µM, first compound 0.316 µM
[16] = second compound 0.316 µM, first compound 1 µM
[17] = second compound 0.316 µM, first compound 3.16 µM
[18] = second compound 0.316 µM, first compound 10 µM
[19] = second compound 1 µM, first compound 0.0316 µM
[20] = second compound 1 µM, first compound 0.1 µM
[21] = second compound 1 µM, first compound 0.316 µM
[22] = second compound 1 µM, first compound 1 µM
[23] = second compound 1 µM, first compound 3.16 µM
[24] = second compound 1 µM, first compound 10 µM
[25] = second compound 3.16 µM, first compound 0.0316 µM
[26] = second compound 3.16 µM, first compound 0.1 µM
[27] = second compound 3.16 µM, first compound 0.316 µM
[28] = second compound 3.16 µM, first compound 1 µM
[29] = second compound 3.16 µM, first compound 3.16 µM
[30] = second compound 3.16 µM, first compound 10 µM
[31] = second compound 10 µM, first compound 0.0316 µM
[32] = second compound 10 µM, first compound 0.1 µM
[33] = second compound 10 µM, first compound 0.316 µM
[34] = second compound 10 µM, first compound 1 µM
[35] = second compound 10 µM, first compound 3.16 µM
[36] = second compound 10 µM, first compound 10 µM
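Note: spheroids exposed to drugs for seven days before readout.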
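Throughout, for viability, T/C: percent viability relative to DMSO vehicle control taken as 100%.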

**Q.** With `Nc1ccn(C2OC(CO)C(O)C2(F)F)c(=O)n1` (centres undefined) + Cc1cccc(N(C)C(=O)C2C(O)CCN2c2nc(C)cc(C(F)(F)F)c2C#N)c1 as the compound, how does the IC50 (second compound 0.0316 µM) read?
**A.** Its IC50 is < 31.6 nM.

**Q.** What about the IC50 (second compound 0.1 µM) of the same compound?
**A.** The IC50 was < 31.6 nM.

**Q.** And the IC50 (second compound 0.316 µM)?
**A.** The IC50 was < 31.6 nM.

**Q.** And the IC50 (second compound 1 µM)?
**A.** The IC50 was < 31.6 nM.

**Q.** What about the IC50 (second compound 3.16 µM) of the same compound?
**A.** The IC50 was < 31.6 nM.

**Q.** And the IC50 (second compound 10 µM)?
**A.** Its IC50 is < 31.6 nM.

**Q.** And the viability, T/C [1]?
**A.** The viability, T/C was 25.1%.

**Q.** What about the viability, T/C [2] of the same compound?
**A.** Its viability, T/C is 9.7%.

**Q.** What about the viability, T/C [3] of the same compound?
**A.** Its viability, T/C is 7.84%.

**Q.** And the viability, T/C [4]?
**A.** The viability, T/C was 9.16%.

**Q.** What about the viability, T/C [5] of the same compound?
**A.** Its viability, T/C is 9.02%.

**Q.** And the viability, T/C [6]?
**A.** The viability, T/C was 7.36%.

**Q.** And the viability, T/C [7]?
**A.** Its viability, T/C is 21%.

**Q.** What about the viability, T/C [8] of the same compound?
**A.** The viability, T/C was 11.4%.

**Q.** And the viability, T/C [9]?
**A.** The viability, T/C was 10.4%.

**Q.** And the viability, T/C [10]?
**A.** The viability, T/C was 8.24%.

**Q.** What about the viability, T/C [11] of the same compound?
**A.** The viability, T/C was 9.14%.

**Q.** And the viability, T/C [12]?
**A.** The viability, T/C was 8.33%.

**Q.** And the viability, T/C [13]?
**A.** Its viability, T/C is 25.4%.

**Q.** What about the viability, T/C [14] of the same compound?
**A.** The viability, T/C was 11.3%.

**Q.** What about the viability, T/C [15] of the same compound?
**A.** The viability, T/C was 7.36%.

**Q.** And the viability, T/C [16]?
**A.** Its viability, T/C is 9.63%.

**Q.** What about the viability, T/C [17] of the same compound?
**A.** The viability, T/C was 9.1%.

**Q.** What about the viability, T/C [18] of the same compound?
**A.** The viability, T/C was 9.51%.

**Q.** What about the viability, T/C [19] of the same compound?
**A.** The viability, T/C was 17.7%.

**Q.** What about the viability, T/C [20] of the same compound?
**A.** The viability, T/C was 8.64%.

**Q.** What about the viability, T/C [21] of the same compound?
**A.** The viability, T/C was 7.94%.

**Q.** And the viability, T/C [22]?
**A.** Its viability, T/C is 9.54%.

**Q.** And the viability, T/C [23]?
**A.** Its viability, T/C is 10.9%.

**Q.** What about the viability, T/C [24] of the same compound?
**A.** Its viability, T/C is 9.2%.

**Q.** What about the viability, T/C [25] of the same compound?
**A.** Its viability, T/C is 21.1%.

**Q.** What about the viability, T/C [26] of the same compound?
**A.** Its viability, T/C is 10.5%.

**Q.** What about the viability, T/C [27] of the same compound?
**A.** The viability, T/C was 8.82%.

**Q.** What about the viability, T/C [28] of the same compound?
**A.** The viability, T/C was 9.94%.

**Q.** What about the viability, T/C [29] of the same compound?
**A.** Its viability, T/C is 10.1%.

**Q.** And the viability, T/C [30]?
**A.** Its viability, T/C is 9.91%.

**Q.** And the viability, T/C [31]?
**A.** The viability, T/C was 15.7%.

**Q.** And the viability, T/C [32]?
**A.** The viability, T/C was 10.8%.

**Q.** What about the viability, T/C [33] of the same compound?
**A.** The viability, T/C was 12.1%.

**Q.** What about the viability, T/C [34] of the same compound?
**A.** The viability, T/C was 11.4%.

**Q.** And the viability, T/C [35]?
**A.** Its viability, T/C is 13.6%.

**Q.** And the viability, T/C [36]?
**A.** Its viability, T/C is 11.1%.

**Q.** What does the source list for `CC1COCCN1c1cc(C2(S(C)(=N)=O)CC2)nc(-c2ccnc3[nH]ccc23)n1` (centres undefined) + COC1C(OC(N)=O)C(O)C(Oc2ccc3c(O)c(NC(=O)c4ccc(O)c(CC=C(C)C)c4)c(=O)oc3c2C)OC1(C)C?
**A.** IC50 (second compound 0.0316 µM): 1910 nM; IC50 (second compound 0.1 µM): 1850 nM; IC50 (second compound 0.316 µM): 1780 nM; IC50 (second compound 1 µM): 1930 nM; IC50 (second compound 3.16 µM): 1790 nM; IC50 (second compound 10 µM): 1670 nM; viability, T/C [1]: 100%; viability, T/C [2]: 86.1%; viability, T/C [3]: 78.5%; viability, T/C [4]: 78.2%; viability, T/C [5]: 28.9%; viability, T/C [6]: 5.71%; viability, T/C [7]: 92%; viability, T/C [8]: 85.2%; viability, T/C [9]: 91.3%; viability, T/C [10]: 79.9%; viability, T/C [11]: 24%; viability, T/C [12]: 5.69%; viability, T/C [13]: 91.1%; viability, T/C [14]: 82.1%; viability, T/C [15]: 77.1%; viability, T/C [16]: 75.7%; viability, T/C [17]: 24.9%; viability, T/C [18]: 7.92%; viability, T/C [19]: 87%; viability, T/C [20]: 82.1%; viability, T/C [21]: 87%; viability, T/C [22]: 79%; viability, T/C [23]: 28%; viability, T/C [24]: 7.44%; viability, T/C [25]: 78%; viability, T/C [26]: 88.2%; viability, T/C [27]: 81.5%; viability, T/C [28]: 67.5%; viability, T/C [29]: 32.6%; viability, T/C [30]: 8.77%; viability, T/C [31]: 85.6%; viability, T/C [32]: 74.4%; viability, T/C [33]: 79.8%; viability, T/C [34]: 61.7%; viability, T/C [35]: 34.5%; viability, T/C [36]: 5.53%
